In US11571403B2, “Methods for the treatment of non-alcoholic steatohepatitis” (Eiger Biopharmaceuticals, Inc., priority 2016, dated 2023):

Assays:
[1] = system: STAM mouse model for NASH; experiment: Plasma CK-18, STAM mouse NASH model (Example 1); format: in vivo
From the text: (§1) The STAM™ mouse is a model for NASH created by a combination of chemical and dietary interventions in C57BL/6 mice that manifest NASH at about 8 weeks, which progresses to fibrosis at about 12 weeks and then progresses to HCC at about 16 weeks. See, Saito et al., Sci. Rep. 2015, 5:12466.
(§2) In the study, the control groups were as follows: (i) Untreated Disease Control—a group of STAM mice injected with streptozotocin (STZ, Sigma-Aldrich, USA) at 2 days old, and fed a high fat diet (HFD, 57 kcal % fat, Cat #HFD32, CLEA Japan, Japan) starting at 4 weeks old; and (ii) Positive Control—a group of STAM mice treated with telmisartan (10 mg/kg QD from 7 to 9 weeks). In addition to these control groups, test groups of STAM mice treated with a low dose of ubenimex (5 mg/kg ubenimex BID from 7 to 9 weeks) or a high dose of ubenimex (25 mg/kg BID from 7 to 9 weeks), were included in the study. The low dose is equivalent to a human dose of 30 mg BID. The high dose is equivalent to a human dose of 150 mg BID. The viability, clinical signs and behavior were monitored daily, including body weight, signs of toxicity, moribundity and mortality. The mice were maintained in a SPF facility under controlled conditions of temperature (23±2° C.), humidity (45±10%), lighting (12-hour artificial light and dark cycles; light from 8:00 to 20:00) and air exchange. A high pressure was maintained in the experimental room to prevent contamination of the facility. The mice were housed in TPX cages (CLEA Japan) with a maximum of 4 mice per case.
(§3) All groups of mice were sacrificed at 9 weeks. Once sacrificed, the body weight of each mouse was recorded. The liver of each mouse was removed and weighed. The liver-to-body weight ratio was determined for each mouse. Blood serum levels of CK-18, ALT, and liver triglycerides were determined for each mouse. The livers were then sectioned and stained with hematoxylin and eosin (“HE”) stain, as well as Sirius red staining, to determine liver steatosis (ballooning) and fibrosis, respectively.

[2] = system: STAM model of NASH fibrosis; experiment: Fibrosis area by Sirius red staining, STAM model of NASH with fibrosis (Example 3); format: in vivo, mouse
Protocol: Ubenimex or telmisartan was administered orally in a volume at 10 mL/kg. Ubenimex was administered at a dose of 5 mg/kg once daily or twice daily. Telmisartan was administered at a dose of 5 mg/kg once daily. For HE staining, sections were cut from paraffin blocks of liver tissue prefixed in Bouin's solution and stained with Lillie-Mayer's hematoxylin (Muto Pure Chemicals Co., Ltd., Japan) and eosin solution (Wako Pure Chemical Industries, Ltd., Japan). NAFLD Activity Score (NAS) was calculated according to the criteria of Kleiner (Kleiner et al., Hepatology, 2005, 41:1313). To visualize collagen deposition, Bouin's fixed liver sections were stained using picro-Sirius red solution (Waldeck, Germany). For quantitative analysis of fibrosis area, bright field images of Sirius red-staining sections were captured around the central vein using a digital camera (DFC295; Leica, Germany) at 200-fold magnification, and the positive areas in 5 fields/section were measured using ImageJ software (National Institutes of Health, USA). Study groups: The following study groups were used. Group 1 (Vehicle): 8 NASH mice were orally administered vehicle (RO water) in a volume of 10 mL/kg twice daily from 6 to 11 weeks of age. Group 2 (Ubenimex QD for 5 weeks): 8 NASH mice were orally administered vehicle supplemented with ubenimex at a dose of 5 mg/kg once daily from 6 to 11 weeks of age. Group 3 (Ubenimex BID for 5 weeks): 8 NASH mice were orally administered vehicle supplemented with ubenimex at a dose of 5 mg/kg twice daily from 6 to 11 weeks of age. Group 4 (Ubenimex BID for 2 weeks): 8 NASH mice were orally administered vehicle supplemented with ubenimex at a dose of 5 mg/kg twice daily from 9 to 11 weeks of age. Group 5 (Telmisartan for 5 weeks): 8 NASH mice were orally administered pure water supplemented with telmisartan at a dose of 5 mg/kg once daily from 6 to 11 weeks of age.

[3] = system: STAM mouse model for NASH; experiment: Biochemistry: plasma ALT and liver triglyceride, STAM mouse NASH model (Example 1); format: in vivo; details: 7 to 9 weeks of age
From the text: as §1, §2, §3

[4] = system: STAM mouse model for NASH; experiment: NAFLD Activity Score by HE staining, STAM mouse NASH model (Example 1); format: in vivo; details: for Steatosis score 0, number of mice: score 0 = <5%; for Steatosis score 0, number of mice / Hepatocyte ballooning score 0, number of mice / Steatosis score 1, number of mice / Lobular inflammation score 1, number of mice / Lobular inflammation score 2, number of mice / Lobular inflammation score 3, number of mice / NAS (mean ± SD) / Hepatocyte ballooning score 1, number of mice: 7 to 9 weeks of age; for Hepatocyte ballooning score 0, number of mice: score 0 = None; for Steatosis score 1, number of mice: score 1 = 5-33%; for Lobular inflammation score 1, number of mice: score 1 = <2 foci/200x; for Lobular inflammation score 2, number of mice: score 2 = 2-4 foci/200x; for Lobular inflammation score 3, number of mice: score 3 = >4 foci/200x; for Hepatocyte ballooning score 1, number of mice: score 1 = Few balloon cells
From the text: as §1, §2, §3

For CCCc1nc2c(C)cc(-c3nc4ccccc4n3C)cc2n1Cc1ccc(-c2ccccc2C(=O)O)cc1 [Telmisartan, telmisartan], the “Plasma CK-18” value ([1]; telmisartan group (10 mg/kg QD, 7 to 9 weeks)) was 284.5±38.4 mIU/mL, the “Sirius red-positive area (fibrosis area, mean ± SD)” value ([2]; telmisartan 5 mg/kg QD oral, 6 to 11 weeks of age) was 0.57 ± 0.14% and the “Liver triglyercide (mean ± SD)” value ([3]; telmisartan 10 mg/kg QD) was 22.4 ± 7.5 mg/g liver. For the same compound, the “Plasma ALT (mean ± SD)” value ([3]; telmisartan 10 mg/kg QD) was 44 ± 13 U/L, the “Steatosis score 0, number of mice” value ([4]; telmisartan 10 mg/kg QD) was 3 and the “Hepatocyte ballooning score 0, number of mice” value ([4]; telmisartan 10 mg/kg QD) was 8. The “Steatosis score 1, number of mice” value ([4]; telmisartan 10 mg/kg QD) was 5, the “Lobular inflammation score 1, number of mice” value ([4]; telmisartan 10 mg/kg QD) was 2 and the “Lobular inflammation score 2, number of mice” value ([4]; telmisartan 10 mg/kg QD) was 4. For the same compound, the “Lobular inflammation score 3, number of mice” value ([4]; telmisartan 10 mg/kg QD) was 2 and the “NAS (mean ± SD)” value ([4]; telmisartan 10 mg/kg QD) was 2.6 + 0.9.

CC(C)C[C@H](NC(=O)[C@@H](O)[C@H](N)Cc1ccccc1)C(=O)O [Ubenimex, (2S)-2-[[(2S,3R)-3-amino-2-hydroxy-4-phenylbutanoyl]amino]-4-methylpentanoic acid] was tested, and the “Plasma CK-18” value ([1]; high dose ubenimex group (25 mg/kg BID, 7 to 9 weeks)) was 230.8±28.6 mIU/mL, the “Plasma CK-18” value ([1]; low dose ubenimex group (5 mg/kg BID, 7 to 9 weeks)) was 238.5±7.7 mIU/mL and the “Sirius red-positive area (fibrosis area, mean ± SD)” value ([2]; ubenimex 5 mg/kg BID oral, 6 to 11 weeks of age) was 0.88 ± 0.22%. For the same compound, the “Sirius red-positive area (fibrosis area, mean ± SD)” value ([2]; ubenimex 5 mg/kg BID oral, 9 to 11 weeks of age) was 0.87 ± 0.14%, the “Sirius red-positive area (fibrosis area, mean ± SD)” value ([2]; ubenimex 5 mg/kg QD oral, 6 to 11 weeks of age) was 0.75 ± 0.16% and the “Liver triglyercide (mean ± SD)” value ([3]; ubenimex 5 mg/kg BID) was 50.0 ± 22.7 mg/g liver. For the same compound, the “Plasma ALT (mean ± SD)” value ([3]; ubenimex 5 mg/kg BID) was 59 ± 22 U/L, the “Liver triglyercide (mean ± SD)” value ([3]; ubenimex 25 mg/kg BID) was 34.8 ± 22.2 mg/g liver and the “Plasma ALT (mean ± SD)” value ([3]; ubenimex 25 mg/kg BID) was 62 ± 11 U/L. The “Hepatocyte ballooning compared with the control group” value ([4]; high and low dose ubenimex groups (25 and 5 mg/kg BID, 7 to 9 weeks)) was “significantly decreased”, the “Steatosis score 0, number of mice” value ([4]; ubenimex 5 mg/kg BID) was 1 and the “Hepatocyte ballooning score 0, number of mice” value ([4]; ubenimex 5 mg/kg BID) was 4. The “Hepatocyte ballooning score 0, number of mice” value ([4]; ubenimex 25 mg/kg BID) was 5, the “Steatosis score 1, number of mice” value ([4]; ubenimex 5 mg/kg BID) was 5 and the “Steatosis score 1, number of mice” value ([4]; ubenimex 25 mg/kg BID) was 7. The “Lobular inflammation score 1, number of mice” value ([4]; ubenimex 5 mg/kg BID) was 1, the “Hepatocyte ballooning score 1, number of mice” value ([4]; ubenimex 5 mg/kg BID) was 2 and the “Hepatocyte ballooning score 1, number of mice” value ([4]; ubenimex 25 mg/kg BID) was 2. The “Lobular inflammation score 2, number of mice” value ([4]; ubenimex 5 mg/kg BID) was 3, the “Lobular inflammation score 2, number of mice” value ([4]; ubenimex 25 mg/kg BID) was 5 and the “Lobular inflammation score 3, number of mice” value ([4]; ubenimex 5 mg/kg BID) was 2. The “Lobular inflammation score 3, number of mice” value ([4]; ubenimex 25 mg/kg BID) was 2, the “NAS (mean ± SD)” value ([4]; ubenimex 5 mg/kg BID) was 3.3 ± 0.5 and the “NAS (mean ± SD)” value ([4]; ubenimex 25 mg/kg BID) was 3.6 ± 0.5.
